According to PMC2891523 (The Journal of organic chemistry, 2010):

Target: T1, α-TTP (tocopherol transfer protein) (Homo sapiens, UniProt P49638)
T1 sequence (P49638 1-278): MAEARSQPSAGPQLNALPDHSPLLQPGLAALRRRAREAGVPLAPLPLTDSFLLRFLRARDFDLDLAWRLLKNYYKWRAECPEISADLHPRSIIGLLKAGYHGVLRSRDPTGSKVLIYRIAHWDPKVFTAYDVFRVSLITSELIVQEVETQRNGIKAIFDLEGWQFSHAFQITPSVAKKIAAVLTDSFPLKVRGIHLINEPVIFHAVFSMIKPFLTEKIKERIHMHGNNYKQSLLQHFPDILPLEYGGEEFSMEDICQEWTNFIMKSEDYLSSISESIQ
Assay: fluorescence titration of purified α-TTP, one-site binding fit

For CC1=CC(C)=[N+]2C1=Cc1ccc(CCCCCC[C@]3(C)CCc4c(C)c(O)c(C)c(C)c4O3)n1[B-]2(F)F [10a, (R)-5,5-difluoro-7-(6-(6-hydroxy-2,5,7,8-tetramethylchroman-2-yl)hexyl)-1,3-dimethyl-5H-dipyrrolo[1,2-c:1′,2′-f][1,3,2]diazaborinin-4-ium-5-uide], which Kd is on record?
Its Kd is 232 ± 10 nM.
